Test results: article PMC12396409, “Screening and hit evaluation of a microbial metabolite library against the pathogenic Plasmodium falciparum and Toxoplasma gondii parasites” (International Journal for Parasitology: Drugs and Drug …, 2025)
Where two headings read alike, the source gives them in different places. *1 amine or outer side, *2 acyl side, *3 side chain or, on linkers, in order; H or OH if unused. Where a SMILES comes first, the peptide text is derived from it. Bridges are numbered along the chain shown (N, C = ends). Roman numbers before positions name the chains, in order. [ ]: non-standard residue; d: D form. The star is where a group is joined. Actinocin(9to1) = Cc1c2oc3c(C)ccc(C(=O)[*:1])c3nc-2c(C(=O)[*:2])c(N)c1=O; NMeV = CN[C@H](C(=O)O)C(C)C; X2 = CCCCCCCCCCCC(O)CC(=O)*; Sar = CNCC(=O)O

Columns and labels:
[1] = tested on: P. falciparum 3D7 parasites; assay: P. falciparum growth inhibition assay, 1-cycle (72 h treatment), SYBR DNA staining (library screen at 2 μg/mL and dose-response); type: cell-based, Plasmodium falciparum; settings: for activity at 2 µg/mL: Plasmodium falciparum
[2] = tested on: P. falciparum 3D7 parasites; assay: P. falciparum growth inhibition assay, 2-cycle (120 h treatment), delayed-death screen and dose-response; type: cell-based, Plasmodium falciparum; settings: for activity at 2 µg/mL: Plasmodium falciparum
[3] = tested on: T. gondii RH strain (RH-Tub-eYFP) tachyzoites; assay: microbe, parasite or virus in culture; type: cell-based, Toxoplasma gondii
[4] = library screen at 2 μg/mL, 72 h, % growth, replicate 1
[5] = library screen at 2 μg/mL, 72 h, % growth, replicate 2
[6] = P. falciparum 3D7, 72 h, parasite screen at 2 μg/mL, % growth, replicate 1
[7] = P. falciparum 3D7, 72 h, parasite screen at 2 μg/mL, % growth, replicate 2
[8] = P. falciparum 3D7, 120 h, parasite screen at 2 μg/mL, % growth, replicate 1
[9] = P. falciparum 3D7, 120 h, parasite screen at 2 μg/mL, % growth, replicate 2
[10] = T. gondii, 72 h, parasite screen at 2 μg/mL, % growth, replicate 1
[11] = T. gondii, 72 h, parasite screen at 2 μg/mL, % growth, replicate 2

Cc1c2oc3c(C)ccc(C(=O)N[C@@H]4C(=O)N[C@H](C(C)C)C(=O)N5CCC[C@H]5C(=O)N(C)CC(=O)N(C)[C@@H](C(C)C)C(=O)O[C@@H]4C)c3nc-2c(C(=O)N[C@@H]2C(=O)N[C@H](C(C)C)C(=O)N3CCC[C@H]3C(=O)N(C)CC(=O)N(C)[C@@H](C(C)C)C(=O)O[C@@H]2C)c(N)c1=O [Actinomycin D] (I: T[dV]P[Sar][NMeV] / II: T[dV]P[Sar][NMeV]; ester I:1-I:C, II:1-II:C; linker I:N-II:N via Actinocin(9to1))
activity at 2 µg/mL ([1]; 3D7, library screen at 2 μg/mL, 72 h, % growth, replicate 1, read-out: Pf_72h_%Growth_Rep1): 2.91% | activity at 2 µg/mL ([1]; 3D7, library screen at 2 μg/mL, 72 h, % growth, replicate 2, read-out: Pf_72h_%Growth_Rep2): 5.02% | activity at 2 µg/mL ([2]; 3D7, library screen at 2 μg/mL, 120 h, % growth, replicate 1, read-out: Pf_120h_%Growth_Rep1): 7.65% | activity at 2 µg/mL ([2]; 3D7, library screen at 2 μg/mL, 120 h, % growth, replicate 2, read-out: Pf_120h_%Growth_Rep2): -5.71% | percent parasite growth at 2 µg/mL ([3]; Toxoplasma gondii; library screen at 2 μg/mL, 72 h, % growth, replicate 1; read-out: Tg_72h_%Growth_Rep1): 2.02% | percent parasite growth at 2 µg/mL ([3]; Toxoplasma gondii; library screen at 2 μg/mL, 72 h, % growth, replicate 2; read-out: Tg_72h_%Growth_Rep2): 0.47%

CCc1cc(O)cc(O)c1C(=O)O[C@H]1[C@H](O)[C@H](OC)[C@H](OC/C2=C\C=C\C[C@H](O)/C(C)=C/[C@H](CC)[C@@H](O[C@@H]3OC(C)(C)[C@@H](OC(=O)C(C)C)[C@H](O)[C@@H]3O)/C(C)=C/C(C)=C/C[C@@H]([C@@H](C)O)OC2=O)O[C@@H]1C [Didechlorofidaxomicin]
Pf_72h_%Growth_Rep1 [1, 4]: 4.39% | Pf_72h_%Growth_Rep2 [1, 5]: 6.69% | Pf_120h_%Growth_Rep1 ([2]; library screen at 2 μg/mL, 120 h, % growth, replicate 1): 14.52% | Pf_120h_%Growth_Rep2 ([2]; library screen at 2 μg/mL, 120 h, % growth, replicate 2): 29.62% | Tg_72h_%Growth_Rep1 [3, 4]: 110.91% | Tg_72h_%Growth_Rep2 [3, 5]: 90.14%

Cc1cc(O)c2c3c4c(cc(O)c13)C(C)(C)C(=O)c1c(O)cc(O)c(c1-4)C2=O [Resistomycin]
activity at 2 µg/mL ([1]; 3D7, 72 h, P. falciparum, 72 h, parasite screen 2 μg/mL, % growth, replicate 1, read-out: Pf_72h_%Growth_Rep1): 82% | activity at 2 µg/mL ([1]; 3D7, 72 h, P. falciparum, 72 h, parasite screen 2 μg/mL, % growth, replicate 2, read-out: Pf_72h_%Growth_Rep2): 102% | activity at 2 µg/mL ([2]; 3D7, 120 h, P. falciparum, 120 h, parasite screen 2 μg/mL, % growth, replicate 1, read-out: Pf_120h_%Growth_Rep1): 78.2% | activity at 2 µg/mL ([2]; 3D7, 120 h, P. falciparum, 120 h, parasite screen 2 μg/mL, % growth, replicate 2, read-out: Pf_120h_%Growth_Rep2): 130% | percent parasite growth at 2 µg/mL ([3]; Toxoplasma gondii, 72 h, T. gondii, 72 h, parasite screen 2 μg/mL, % growth, replicate 1; read-out: Tg_72h_%Growth_Rep1): 221% | percent parasite growth at 2 µg/mL ([3]; Toxoplasma gondii, 72 h, T. gondii, 72 h, parasite screen 2 μg/mL, % growth, replicate 2; read-out: Tg_72h_%Growth_Rep2): 125%

CCC(=O)[C@@H](C)[C@@H](O)[C@H](C)C[C@@H](C)[C@H]1OC(=O)C[C@@]2(O)CC=C(C)[C@H](O2)/C(C)=C/CCC[C@@H](O[C@H]2C[C@@H](OC(N)=O)[C@H](O)[C@@H](C)O2)/C=C/[C@H](C)C[C@H]1C [Venturicidin A]
Pf_72h_%Growth_Rep1 ([1]; P. falciparum, 72 h, screen at 2 μg/mL, replicate 1): 8.64% | Pf_72h_%Growth_Rep2 ([1]; P. falciparum, 72 h, screen at 2 μg/mL, replicate 2): 1.38% | Pf_120h_%Growth_Rep1 ([2]; P. falciparum, 120 h, screen at 2 μg/mL, replicate 1): 19.97% | Pf_120h_%Growth_Rep2 ([2]; P. falciparum, 120 h, screen at 2 μg/mL, replicate 2): -12.87% | Tg_72h_%Growth_Rep1 ([3]; T. gondii, 72 h, screen at 2 μg/mL, replicate 1): -1.24% | Tg_72h_%Growth_Rep2 ([3]; T. gondii, 72 h, screen at 2 μg/mL, replicate 2): 0.71%

CC=C(C)C(O)C(C)C=C(C)C=CCC(C)=CCc1nc(OC)c(OC)c(O)c1C (stereo not drawn) [BIA-P1069]
Pf_72h_%Growth_Rep1 [1, 6]: 80.36% | Pf_72h_%Growth_Rep2 [1, 7]: 61.30% | Pf_120h_%Growth_Rep1 [2, 8]: 92.39% | Pf_120h_%Growth_Rep2 [2, 9]: 102.66% | Tg_72h_%Growth_Rep1 [3, 10]: 120.41% | Tg_72h_%Growth_Rep2 [3, 11]: 75.10%

CCCCCCCCCCCC(O)CC(=O)NC(CC(C)C)C(=O)NC(CCC(=O)O)C(=O)NC1C(=O)NC(C(C)CC)C(=O)NC(CC(C)C)C(=O)NC(CO)C(=O)NC(CC(C)C)C(=O)NC(CC(C)C)C(=O)NC(CO)C(=O)NC(C(C)C)C(=O)OC1C (stereo not drawn) [BIA-O1430] (X2-LETILSLLSV; ester 3-C; configuration not given here)
Pf_72h_%Growth_Rep1 [1, 6]: 78.47% | Pf_72h_%Growth_Rep2 [1, 7]: 76.87% | Pf_120h_%Growth_Rep1 [2, 8]: 85.46% | Pf_120h_%Growth_Rep2 [2, 9]: 72.71% | Tg_72h_%Growth_Rep1 [3, 10]: 121.77% | Tg_72h_%Growth_Rep2 [3, 11]: 92.49%

CC[C@H]1OC(=O)[C@H](C)[C@@H](O[C@H]2C[C@@](C)(OC)[C@@H](O)[C@H](C)O2)[C@H](C)[C@@H](O[C@@H]2O[C@H](C)C[C@H](N(C)C)[C@H]2O)[C@](C)(O)C[C@@H](C)[C@@H]2N[C@@H](COCCOC)O[C@H]([C@H]2C)[C@]1(C)O [Dirithromycin]
activity at 2 µg/mL ([1]; 3D7, 72 h, library screen at 2 μg/mL, 72 h, % growth, replicate 1, read-out: Pf_72h_%Growth_Rep1): 80.4% | activity at 2 µg/mL ([1]; 3D7, 72 h, library screen at 2 μg/mL, 72 h, % growth, replicate 2, read-out: Pf_72h_%Growth_Rep2): 73.2% | activity at 2 µg/mL ([2]; 3D7, 120 h, library screen at 2 μg/mL, 120 h, % growth, replicate 1, read-out: Pf_120h_%Growth_Rep1): 62.1% | activity at 2 µg/mL ([2]; 3D7, 120 h, library screen at 2 μg/mL, 120 h, % growth, replicate 2, read-out: Pf_120h_%Growth_Rep2): 48.4% | percent parasite growth at 2 µg/mL ([3]; Toxoplasma gondii, 72 h, library screen at 2 μg/mL, 72 h, % growth, replicate 1; read-out: Tg_72h_%Growth_Rep1): 67.5% | percent parasite growth at 2 µg/mL ([3]; Toxoplasma gondii, 72 h, library screen at 2 μg/mL, 72 h, % growth, replicate 2; read-out: Tg_72h_%Growth_Rep2): 74.8%
